For this test, the target named is T1, ΔF508-CFTR (Homo sapiens, UniProt P13569, DEL508-508).
T1 construct: Primary lung epithelial cells homozygous for the Cystic Fibrosis-causing ΔF508 mutation were differentiated for a minimum of 4 weeks; endogenous in cells; host or cells: primary lung epithelial cells (hBE) homozygous for ΔF508, differentiated at an air-liquid interface
Put plainly: hBE equivalent current (Ieq) assay: AUC of equivalent chloride current after forskolin/VX-770 in primary lung epithelial cells homozygous for ΔF508. Type of test: cell-based. Conditions: relative to CFTR amplifier (Compound A)+VX-809 (3 uM), compound at 10 uM and Compound A at 3 uM, 24 h treatment. The method, then: ii. hBE Equivalent Current (Ieq) Assay
Primary lung epithelial cells homozygous for the Cystic Fibrosis-causing ΔF508 mutation were differentiated for a minimum of 4 weeks in an air-liquid interface on Costar 24 well HTS filter plates prior to the equivalent current (Ieq) measurements. Cells were apically mucus-washed for 30 minutes 24 h prior to treatment with compounds. The basolateral media was removed and replaced with media containing the compound of interest diluted to its final concentration from DMSO stocks. Treated cells were incubated at 37° C. and 5% CO2 for 24 hours. At the end of the treatment period, the media was changed to the Ieq experimental solution for 2 hours before the experiment and plates are maintained in a CO2-free incubator during this period. The plates containing the cells were then placed in pre-warmed heating blocks at 36° C.±0.5 for 15 minutes before measurements are taken. The transepithelial voltage (VT) and conductance (GT) were measured using a custom 24 channel current clamp (TECC-24) with 24 well electrode manifold. The Ieq assay measurements were made following additions with standardized time periods: • 1. The baseline VT and GT values were measured for approximately 20 minutes. • 2. Benzamil was added to block ENaC for 15 minutes. • 3. Forskolin plus VX-770 were added to maximally activate ΔF508-CFTR for 27 minutes. • 4. Bumetanide was added to inhibit the NaK2Cl cotransporter and shut-off secretion of chloride.
The activity data captured was the area under the curve (AUC) for the traces of the equivalent chloride current. The AUC was collected from the time of the forskolin/VX-770 addition until the inhibition by bumetanide addition. Correction in response to compound treatment was scored as the increase in the AUC for compound-treated samples over that of vehicle-treated samples.
(+ indicates activity<50% of an CFTR amplifier (Compound A)+VX-809 (3 uM) with compound at 10 uM and Compound A at 3 uM; ++ indicates activity>50% of CFTR amplifier+VX-809 (3 uM) with compound at 10 uM and Compound A at 3 uM.

T1 sequence (P13569 with tags, fused parts or gaps DEL508-508): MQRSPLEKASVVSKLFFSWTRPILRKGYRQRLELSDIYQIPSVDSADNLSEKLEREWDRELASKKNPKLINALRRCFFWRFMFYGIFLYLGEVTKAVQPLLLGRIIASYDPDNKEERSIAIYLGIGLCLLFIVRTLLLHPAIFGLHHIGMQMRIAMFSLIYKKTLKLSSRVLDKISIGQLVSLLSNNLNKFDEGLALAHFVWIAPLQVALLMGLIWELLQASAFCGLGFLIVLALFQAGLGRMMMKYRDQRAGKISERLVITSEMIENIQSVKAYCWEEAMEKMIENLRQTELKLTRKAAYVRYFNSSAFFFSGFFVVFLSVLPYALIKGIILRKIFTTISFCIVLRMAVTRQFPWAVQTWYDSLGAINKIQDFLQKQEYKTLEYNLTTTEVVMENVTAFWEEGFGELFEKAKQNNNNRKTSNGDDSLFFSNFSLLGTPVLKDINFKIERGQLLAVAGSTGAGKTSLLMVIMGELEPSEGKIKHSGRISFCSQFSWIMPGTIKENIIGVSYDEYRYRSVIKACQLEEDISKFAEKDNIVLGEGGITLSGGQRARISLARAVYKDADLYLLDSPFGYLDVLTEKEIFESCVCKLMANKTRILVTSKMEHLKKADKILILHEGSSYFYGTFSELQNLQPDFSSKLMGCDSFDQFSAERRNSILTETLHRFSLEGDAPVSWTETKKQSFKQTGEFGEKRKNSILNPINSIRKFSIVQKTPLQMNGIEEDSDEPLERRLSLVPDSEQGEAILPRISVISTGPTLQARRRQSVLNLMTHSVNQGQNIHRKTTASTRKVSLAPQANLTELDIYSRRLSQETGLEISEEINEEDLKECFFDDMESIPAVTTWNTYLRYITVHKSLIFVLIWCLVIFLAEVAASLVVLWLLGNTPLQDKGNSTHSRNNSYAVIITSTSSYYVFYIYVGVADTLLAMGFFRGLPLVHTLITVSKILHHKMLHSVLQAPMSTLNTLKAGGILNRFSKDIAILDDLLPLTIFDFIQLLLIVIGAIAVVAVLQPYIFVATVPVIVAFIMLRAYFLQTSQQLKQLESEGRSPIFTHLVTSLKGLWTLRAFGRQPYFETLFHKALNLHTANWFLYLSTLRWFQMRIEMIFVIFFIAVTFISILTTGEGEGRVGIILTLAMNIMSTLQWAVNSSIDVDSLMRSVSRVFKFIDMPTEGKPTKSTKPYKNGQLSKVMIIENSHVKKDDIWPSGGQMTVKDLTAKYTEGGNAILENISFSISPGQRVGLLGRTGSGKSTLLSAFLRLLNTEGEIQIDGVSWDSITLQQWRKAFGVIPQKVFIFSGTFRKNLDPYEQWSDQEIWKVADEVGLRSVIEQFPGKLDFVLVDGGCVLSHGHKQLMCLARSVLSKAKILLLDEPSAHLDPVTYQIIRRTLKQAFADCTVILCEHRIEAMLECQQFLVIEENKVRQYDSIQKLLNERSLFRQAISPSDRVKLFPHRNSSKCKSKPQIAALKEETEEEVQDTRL

`Cc1c(-c2cc(C(=O)O)c3c(O[C@H]4CC[C@@H](c5ncco5)CC4)ccc(C)c3n2)oc2ccccc12` [Compound 196]: the Activity entry was “++ (activity>50% of CFTR amplifier+VX-809 (3 uM) with compound at 10 uM and Compound A at 3 uM)”.

For the molecule `Cc1c(-c2cc(C(=O)[O-])c3c(OCc4ccc(F)cc4)ccc(C)c3n2)sc2ccccc12.[Na+]` [Compound 291, Sodium 5-[(4-Fluorophenyl)methoxy]-8-methyl-2-(3-methyl-1-benzothiophen-2-yl)quinoline-4-carboxylate], the Activity entry is “++ (activity>50% of CFTR amplifier+VX-809 (3 uM) with compound at 10 uM and Compound A at 3 uM)”. In the case of `Cc1c(-c2cc(C(=O)[O-])c3c(O[C@H]4C[C@H]5CC[C@@H](C4)O5)ccc(C)c3n2)oc2ccccc12.[Na+]` [Compound 355], the Activity result was “++ (activity>50% of CFTR amplifier+VX-809 (3 uM) with compound at 10 uM and Compound A at 3 uM)”. Consider `Cc1c(-c2cc(C(=O)[O-])c3c(OCc4cccc(F)c4)ccc(C)c3n2)sc2ccccc12.[Na+]` [Compound 290, Sodium 5-[(3-Fluorophenyl)methoxy]-8-methyl-2-(3-methyl-1-benzothiophen-2-yl)quinoline-4-carboxylate], for which the Activity result is “++ (activity>50% of CFTR amplifier+VX-809 (3 uM) with compound at 10 uM and Compound A at 3 uM)”. For `Cc1c(-c2cc(C(=O)[O-])c3c(O[C@H]4C[C@H](C)C[C@H](C)C4)ccc(C)c3n2)sc2ccccc12.[Na+]` [Compound 314], the Activity entry was “++ (activity>50% of CFTR amplifier+VX-809 (3 uM) with compound at 10 uM and Compound A at 3 uM)”. For the molecule `Cc1c(-c2cc(C(=O)[O-])c3c(OCC4COC4)ccc(C)c3n2)sc2ccccc12.[Na+]` [Compound 346], the Activity entry was “++ (activity>50% of CFTR amplifier+VX-809 (3 uM) with compound at 10 uM and Compound A at 3 uM)”. Under `Cc1ccc(O[C@@H](C)c2ccccc2)c2c(C(=O)[O-])cc(-c3cn4ccccc4n3)nc12.[Na+]` [Compound 203, Sodium 2-[Imidazo[1,2-a]pyridin-2-yl]-8-methyl-5-[(1S)-1-phenylethoxy]quinoline-4-carboxylate] stands “+ (activity<50% of an CFTR amplifier (Compound A)+VX-809 (3 uM) with compound at 10 uM and Compound A at 3 uM)”; under `Cc1cc(Cl)cc2c(C(=O)O)cc(-c3cc4ccccc4o3)nc12` [Compound 16, 2-(1-Benzofuran-2-yl)-6-chloro-8-methylquinoline-4-carboxylic acid], “+ (activity<50% of an CFTR amplifier (Compound A)+VX-809 (3 uM) with compound at 10 uM and Compound A at 3 uM)”; under `CCc1ccc(OCc2ccc(-c3cnccn3)cc2)c2c(C(=O)O)cc(-c3csc4ccccc34)nc12` [Compound 192, 2-(1-Benzothiophen-3-yl)-8-ethyl-5-[[4-(pyrazin-2-yl)phenyl]methoxy]quinoline-4-carboxylic acid], “++ (activity>50% of CFTR amplifier+VX-809 (3 uM) with compound at 10 uM and Compound A at 3 uM)”.

For the molecule `Cc1cc(C)c2nc(-c3oc4ccccc4c3C)cc(CO)c2c1` [Compound 29, [6,8-Dimethyl-2-(3-methyl-1-benzofuran-2-yl)quinolin-4-yl]methanol], the Activity entry was “+ (activity<50% of an CFTR amplifier (Compound A)+VX-809 (3 uM) with compound at 10 uM and Compound A at 3 uM)”. Turning to `Cc1c(-c2cc(C(=O)[O-])c3c(OCC4CCC4)ccc(C)c3n2)sc2ccccc12.[Na+]` [Compound 319], the Activity result is “++ (activity>50% of CFTR amplifier+VX-809 (3 uM) with compound at 10 uM and Compound A at 3 uM)”. In the case of `COc1ccc(C)c2nc(-c3cc4ccccc4o3)cc(C(=O)O)c12` [Compound 14, 2-(1-Benzofuran-2-yl)-5-methoxy-8-methylquinoline-4-carboxylic acid], the Activity result was “+ (activity<50% of an CFTR amplifier (Compound A)+VX-809 (3 uM) with compound at 10 uM and Compound A at 3 uM)”. With `Cc1c(-c2cc(C(=O)[O-])c3c(O[C@@H](C)c4ccc(C#N)cc4)ccc(C)c3n2)oc2ccccc12.[Na+]` [Compound 234] the entry was “++ (activity>50% of CFTR amplifier+VX-809 (3 uM) with compound at 10 uM and Compound A at 3 uM)”; with `CO[C@]1(C)CC[C@H](COc2ccc(C)c3nc(-c4sc5ccccc5c4C)cc(C(=O)[O-])c23)CC1.[Na+]` [Compound 326], “++ (activity>50% of CFTR amplifier+VX-809 (3 uM) with compound at 10 uM and Compound A at 3 uM)”. For `Cc1c(-c2cc(C(=O)O)c3c(OC4CCCCC4)ccc(C)c3n2)oc2ccccc12` [Compound 79, 5-(Cyclohexyloxy)-8-methyl-2-(3-methyl-1-benzofuran-2-yl)quinoline-4-carboxylic acid], the Activity result is “++ (activity>50% of CFTR amplifier+VX-809 (3 uM) with compound at 10 uM and Compound A at 3 uM)”.

`Cc1c(-c2cc(C(=O)O)c3c(O[C@@H](C)c4ccccc4)ccc(C)c3n2)sc2ccccc12` [Compound 138, 8-Methyl-2-(3-methyl-1-benzothiophen-2-yl)-5-[(1S)-1-phenylethoxy]quinoline-4-carboxylic Acid]: the Activity entry is “++ (activity>50% of CFTR amplifier+VX-809 (3 uM) with compound at 10 uM and Compound A at 3 uM)”. For `Cc1c(-c2cc(C(=O)[O-])c3c(OC4CC(C)(C)C4)ccc(C)c3n2)oc2ccccc12.[Na+]` [Compound 368], the Activity entry was “++ (activity>50% of CFTR amplifier+VX-809 (3 uM) with compound at 10 uM and Compound A at 3 uM)”. `Cc1c(-c2cc(C(=O)[O-])c3c(O[C@H](CO)c4ccccc4)ccc(C)c3n2)sc2ccccc12.[Na+]` [Compound 307]: the Activity entry is “++ (activity>50% of CFTR amplifier+VX-809 (3 uM) with compound at 10 uM and Compound A at 3 uM)”. Under `Cc1c(-c2cc(C(=O)O)c3cc(F)cc(C)c3n2)oc2ccccc12` [Compound 20, 6-Fluoro-8-methyl-2-(3-methylbenzofuran-2-yl)quinoline-4-carboxylic acid] stands “++ (activity>50% of CFTR amplifier+VX-809 (3 uM) with compound at 10 uM and Compound A at 3 uM)”.

On to `Cc1c(-c2cc(C(=O)[O-])c3c(O[C@@H](C)c4ccn5nccc5c4)ccc(C)c3n2)oc2ccccc12.[Na+]` [Compound 258, Sodium 8-Methyl-2-((1S)-3-methyl-1-benzofuran-2-yl)-5-(1-[pyrazolo[1,5-a]pyridin-5-yl]ethoxy)quinoline-4-carboxylate], for which the Activity result was “++ (activity>50% of CFTR amplifier+VX-809 (3 uM) with compound at 10 uM and Compound A at 3 uM)”.

For `Cc1ccc(O[C@H](C)c2ccccc2)c2c(C(=O)O)cc(-c3csc4ccccc34)nc12` [Compound 162], the Activity entry is “++ (activity>50% of CFTR amplifier+VX-809 (3 uM) with compound at 10 uM and Compound A at 3 uM)”. With `Cc1c(-c2cc(C(=O)[O-])c3c(O[C@H]4CCC[C@H](c5ccccc5)C4)ccc(C)c3n2)oc2ccccc12.[Na+]` [Compound 302] the entry was “++ (activity>50% of CFTR amplifier+VX-809 (3 uM) with compound at 10 uM and Compound A at 3 uM)”; with `Cc1cc(Cl)cc2cc(C(=O)O)c(-c3cc4ccccc4o3)nc12` [Compound 12, 2-(1-Benzofuran-2-yl)-6-chloro-8-methylquinoline-3-carboxylic Acid], “+ (activity<50% of an CFTR amplifier (Compound A)+VX-809 (3 uM) with compound at 10 uM and Compound A at 3 uM)”; with `Cc1c(-c2cc(C(=O)[O-])c3c(OCC4CCC5(CC4)COC5)ccc(C)c3n2)oc2ccccc12.[Na+]` [Compound 367], “++ (activity>50% of CFTR amplifier+VX-809 (3 uM) with compound at 10 uM and Compound A at 3 uM)”. Consider `Cc1ccc(OCc2ccccc2)c2c(C(=O)O)cc(-c3cc4ccccc4o3)nc12` [Compound 15, 2-(1-Benzofuran-2-yl)-5-(benzyloxy)-8-methylquinoline-4-carboxylic acid], for which the Activity entry is “++ (activity>50% of CFTR amplifier+VX-809 (3 uM) with compound at 10 uM and Compound A at 3 uM)”.

As to `Cc1c(-c2cc(C(=O)[O-])c3c(OC[C@H]4C[C@@](C)(O)C4)ccc(C)c3n2)oc2ccccc12.[Na+]` [Compound 374], the Activity entry is “++ (activity>50% of CFTR amplifier+VX-809 (3 uM) with compound at 10 uM and Compound A at 3 uM)”.

Take `Cc1ccc(C)c2c(C(=O)O)cc(-c3oc4ccccc4c3Cl)nc12` [Compound 38, 2-(3-Chloro-1-benzofuran-2-yl)-5,8-dimethylquinoline-4-carboxylic acid]: the Activity entry was “+ (activity<50% of an CFTR amplifier (Compound A)+VX-809 (3 uM) with compound at 10 uM and Compound A at 3 uM)”. With `CCc1ccc(OCc2cccc(S(C)(=O)=O)c2)c2c(C(=O)O)cc(-c3oc4ccccc4c3C)nc12` [Compound 143, 8-Ethyl-5-[(3-methanesulfonylphenyl)methoxy]-2-(3-methyl-1-benzofuran-2-yl)quinoline-4-carboxylic Acid] the entry was “++ (activity>50% of CFTR amplifier+VX-809 (3 uM) with compound at 10 uM and Compound A at 3 uM)”.

Source of the values: patent publication US11136313B2, “Compounds, compositions, and methods for modulating CFTR” (Proteostasis Therapeutics, Inc., priority 2015, dated 2021).
